Reference: the supplement of paper PMC11061612

Tests used:
Olaparib = compound: O=C(c1cc(Cc2n[nH]c(=O)c3ccccc23)ccc1F)N1CCN(C(=O)C2CC2)CC1 [Olaparib]; details: max 10 µM
How it was run: (§1)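 Viability was measured with CellTiter-Glo 2.0 luminescence after 72 hours of dosing at a final DMSO of typically 0.2%, and scaled between blank-well and DMSO-well means. Beforehand, cancer cell lines sat 24 hours at 37°C and 5% CO2 in 1536-well plates in 7.5 μl DMEM/F12 or RPMI with 10% FBS. A non-linear mixed effects model fitted two-parameter logistic curves to the dose responses. The single-agent IC50 comes from these fits.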

Alisertib = compound: COc1cc(Nc2ncc3c(n2)-c2ccc(Cl)cc2C(c2c(F)cccc2OC)=NC3)ccc1C(=O)O [Alisertib]; details: max 10 µM
How it was run: as §1

AZD4320 = compound: CN(CC[C@H](CSC1=CC=CC=C1)NC2=C(C=C(C=C2)S(=O)(=O)NC(=O)C3=CC=C(C=C3)N4CCC(CC4)[C@H](C5=CC=CC=C5C6=CC=C(C=C6)Cl)O)S(=O)(=O)C(F)(F)F)CCO [AZD4320]; details: max 1 µM
How it was run: as §1

AZD0156 = compound: CN(C)CCCOc1ccc(-c2ccc3ncc4c(c3c2)n(C2CCOCC2)c(=O)n4C)cn1 [AZD0156]; details: max 3 µM
How it was run: as §1

Selumetinib = compound: Cn1cnc2c(F)c(Nc3ccc(Br)cc3Cl)c(C(=O)NOCCO)cc21 [Selumetinib]; details: max 10 µM
How it was run: as §1

Trametinib = compound: CC(=O)Nc1cccc(-n2c(=O)n(C3CC3)c(=O)c3c(Nc4ccc(I)cc4F)n(C)c(=O)c(C)c32)c1 [Trametinib]; details: max 1 µM
How it was run: as §1

AZD6738 = compound: C[C@@H]1COCCN1C2=NC(=NC(=C2)C3(CC3)[S@](=N)(=O)C)C4=C5C=CNC5=NC=C4 [AZD6738]; details: max 10 µM
How it was run: as §1

Lapatinib = compound: CS(=O)(=O)CCNCc1ccc(-c2ccc3ncnc(Nc4ccc(OCc5cccc(F)c5)c(Cl)c4)c3c2)o1 [Lapatinib]; details: max 10 µM
How it was run: as §1

Crizotinib = compound: C[C@@H](Oc1cc(-c2cnn(C3CCNCC3)c2)cnc1N)c1c(Cl)ccc(F)c1Cl [Crizotinib]; details: max 10 µM
How it was run: as §1

AZD7648 = compound: Cc1cc2ncnn2cc1Nc1ncc2c(n1)n(C1CCOCC1)c(=O)n2C [AZD7648]; details: max 10 µM
How it was run: as §1

AZD5991 = compound: Cc1c2c(nn1C)CSCc1cc(n(C)n1)CSc1cc(c3ccccc3c1)OCCCc1c(C(=O)O)n(C)c3c-2c(Cl)ccc13 [AZD5991]; details: max 1 µM
How it was run: as §1

SN-38 = compound: CCc1c2c(nc3ccc(O)cc13)-c1cc3c(c(=O)n1C2)COC(=O)[C@]3(O)CC [SN-38]; details: max 0.3 µM
How it was run: as §1

Taselisib = compound: Cc1nc(-c2cn3c(n2)-c2ccc(-c4cnn(C(C)(C)C(N)=O)c4)cc2OCC3)n(C(C)C)n1 [Taselisib]; details: max 10 µM
How it was run: as §1

Capivasertib = compound: C1CN(CCC1(C(=O)N[C@@H](CCO)C2=CC=C(C=C2)Cl)N)C3=NC=NC4=C3C=CN4 [Capivasertib]; details: max 10 µM
How it was run: as §1

AZD5153 = compound: COc1nnc2ccc(N3CCC(c4ccc(OCCN5CCN(C)C(=O)[C@H]5C)cc4)CC3)nn12 [AZD5153]; details: max 1 µM
How it was run: as §1

Palbociclib = compound: CC(=O)c1c(C)c2cnc(Nc3ccc(N4CCNCC4)cn3)nc2n(C2CCCC2)c1=O [Palbociclib]; details: max 10 µM
How it was run: as §1

Prexasertib = compound: COc1cccc(OCCCN)c1-c1cc(Nc2cnc(C#N)cn2)n[nH]1 [Prexasertib]; details: max 1 µM
How it was run: as §1

Savolitinib = compound: C[C@@H](c1ccc2nccn2c1)n1nnc2ncc(-c3cnn(C)c3)nc21 [Savolitinib]; details: max 1 µM
How it was run: as §1

Gefitinib = compound: COc1cc2ncnc(Nc3ccc(F)c(Cl)c3)c2cc1OCCCN1CCOCC1 [Gefitinib]; details: max 10 µM
How it was run: as §1

SG3199 = compound: CC1=CN2[C@@H](C1)C=NC3=CC(=C(C=C3C2=O)OC)OCCCCCOC4=C(C=C5C(=C4)N=C[C@@H]6CC(=CN6C5=O)C)OC [SG3199]; details: max 0.001 µM
How it was run: as §1

AZD1390 = compound: CC(C)n1c(=O)n(C)c2cnc3cc(F)c(-c4ccc(OCCCN5CCCCC5)nc4)cc3c21 [AZD1390]; details: max 0.3 µM
How it was run: as §1

Venetoclax = compound: CC1(C)CCC(CN2CCN(c3ccc(C(=O)NS(=O)(=O)c4ccc(NCC5CCOCC5)c([N+](=O)[O-])c4)c(Oc4cnc5[nH]ccc5c4)c3)CC2)=C(c2ccc(Cl)cc2)C1 [Venetoclax]; details: max 1 µM
How it was run: as §1

AZD8186 = compound: C[C@@H](Nc1cc(F)cc(F)c1)c1cc(C(=O)N(C)C)cc2c(=O)cc(N3CCOCC3)oc12 [AZD8186]; details: max 3 µM
How it was run: as §1

AZD2811 = compound: CCN(CCO)CCCOc1ccc2c(Nc3cc(CC(=O)Nc4cccc(F)c4)[nH]n3)ncnc2c1 [AZD2811]; details: max 1 µM
How it was run: as §1

Doxorubicin = compound: COc1cccc2c1C(=O)c1c(O)c3c(c(O)c1C2=O)C[C@@](O)(C(=O)CO)C[C@@H]3O[C@H]1C[C@H](N)[C@H](O)[C@H](C)O1 [Doxorubicin]; details: max 1 µM
How it was run: as §1

Dasatinib = compound: CC1=C(C(=CC=C1)Cl)NC(=O)C2=CN=C(S2)NC3=CC(=NC(=N3)C)N4CCN(CC4)CCO [Dasatinib]; details: max 2 µM
How it was run: as §1

AZD1775 = compound: C=CCn1c(=O)c2cnc(Nc3ccc(N4CCN(C)CC4)cc3)nc2n1-c1cccc(C(C)(C)O)n1 [AZD1775]; details: max 3 µM
How it was run: as §1

Cell Line | IC50, cell viability 72 h (Olaparib) | IC50, cell viability 72 h (Alisertib) | IC50, cell viability 72 h (AZD4320) | IC50, cell viability 72 h (AZD0156) | IC50, cell viability 72 h (Selumetinib) | IC50, cell viability 72 h (Trametinib) | IC50, cell viability 72 h (AZD6738) | IC50, cell viability 72 h (Lapatinib) | IC50, cell viability 72 h (Crizotinib) | IC50, cell viability 72 h (AZD7648) | IC50, cell viability 72 h (AZD5991) | IC50, cell viability 72 h (SN-38) | IC50, cell viability 72 h (Taselisib) | IC50, cell viability 72 h (Capivasertib) | IC50, cell viability 72 h (AZD5153) | IC50, cell viability 72 h (Palbociclib) | IC50, cell viability 72 h (Prexasertib) | IC50, cell viability 72 h (Savolitinib) | IC50, cell viability 72 h (Gefitinib) | IC50, cell viability 72 h (SG3199) | IC50, cell viability 72 h (AZD1390) | IC50, cell viability 72 h (Venetoclax) | IC50, cell viability 72 h (AZD8186) | IC50, cell viability 72 h (AZD2811) | IC50, cell viability 72 h (Doxorubicin) | IC50, cell viability 72 h (Dasatinib) | IC50, cell viability 72 h (AZD1775)
COR-L23 (Non-Small Cell Lung Carcinoma) | > 10000 nM | > 10000 nM | > 1000 nM | > 3000 nM | > 10000 nM | > 1000 nM | > 10000 nM | > 10000 nM | > 10000 nM | > 10000 nM | > 1000 nM | 131 nM | 5740 nM | > 10000 nM | > 1000 nM | > 10000 nM | 216 nM | > 1000 nM | > 10000 nM | > 1 nM | > 300 nM | > 1000 nM | > 3000 nM | > 1000 nM | > 1000 nM | > 2000 nM | 591 nM
CTV-1 (T-Lymphoblastic Leukemia) | > 10000 nM | 199 nM | > 1000 nM | > 3000 nM | > 10000 nM | > 1000 nM | 3920 nM | > 10000 nM | 371 nM | > 10000 nM | > 1000 nM | 3.52 nM | 3170 nM | 5880 nM | 57.5 nM | 1470 nM | 7.28 nM | > 1000 nM | 4930 nM | > 1 nM | > 300 nM | > 1000 nM | > 3000 nM | > 1000 nM | 45.6 nM | < 2 nM | 280 nM
DMS-273 (Small Cell Lung Carcinoma) | > 10000 nM | 1060 nM | > 1000 nM | > 3000 nM | > 10000 nM | > 1000 nM | 3450 nM | 7430 nM | 3930 nM | > 10000 nM | 201 nM | 18.9 nM | 5580 nM | 916 nM | 117 nM | > 10000 nM | 32.4 nM | > 1000 nM | > 10000 nM | > 1 nM | > 300 nM | > 1000 nM | 1480 nM | 114 nM | 458 nM | > 2000 nM | 1170 nM
EM-2 (Chronic Myelogenous Leukemia) | > 10000 nM | 1060 nM | 34.2 nM | > 3000 nM | 5550 nM | 350 nM | 1630 nM | > 10000 nM | 859 nM | > 10000 nM | > 1000 nM | 5.12 nM | > 10000 nM | > 10000 nM | 61.6 nM | > 10000 nM | 5.51 nM | > 1000 nM | > 10000 nM | > 1 nM | > 300 nM | > 1000 nM | > 3000 nM | 21.9 nM | 104 nM | 2.28 nM | 295 nM
